Patent US20060014813A1, “Pharmaceutical compounds that regenerate in vivo” (priority 2003, published 2006)

Columns and labels:
[1] = tested on: COX-2; conditions: animal models of Parkinson's disease; cited from earlier work
[2] = target: T1, msrA (Bos taurus, UniProt P54149); experiment: Calorimetric test of whether a compound is turned over by msrA (protein injected into compound solution); format: biochemical, bovine; conditions: compound at 500 μM or as high as possible, three injections of msrA, heat evolved
T1 construct: made in house; host or cells: E. coli
T1 sequence (P54149 21-233): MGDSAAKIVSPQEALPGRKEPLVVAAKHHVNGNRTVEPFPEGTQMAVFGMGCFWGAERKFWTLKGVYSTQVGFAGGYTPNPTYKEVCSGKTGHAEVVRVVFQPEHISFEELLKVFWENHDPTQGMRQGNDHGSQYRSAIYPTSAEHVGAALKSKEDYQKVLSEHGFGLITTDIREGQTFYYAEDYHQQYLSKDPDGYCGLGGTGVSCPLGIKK
Protocol: Compounds 105-108 in the list were only soluble below 1 mM. However, an assessment was made as to whether those compounds were substrates for msrA (i.e., whether they are turned over by the enzyme), by employing the following experimental protocol. The compounds were dissolved in the usual buffer [50 mM Tris, 50 mM KCl, 5 mM TCEP, pH 7.50] at a concentration of 500 μM, or as high as possible. 1.8 ml of this solution was loaded into the calorimetric cell, while the syringe was filled with a […] solution of msrA in the same buffer. After the stirring and equilibration period has elapsed, three injections of protein were made, spaced out over 20 minute intervals. If the compound is a substrate for msrA, a large amount of heat will be evolved after the first injection (several millicalories generated over ˜10 minutes), while the other two injections of protein will register only small heats (tens of microcalories), before the signal quickly returns to the baseline. These smaller heats represent the heat of dilution of the protein into the solution in the calorimetric cell.
Once the substrate has been fully reacted and the heat output has returned to the baseline, further injections of protein show only the heat of dilution of the enzyme.

[3] = target: T2, bovine msrA (Bos taurus, UniProt P54149); experiment: Methionine sulfoxide reductase assay by isothermal titration calorimetry (kcat, KM); format: biochemical; conditions: substrate for msrA; 300 nM enzyme, pH 7.50, 37° C
T2 construct: made in house; host or cells: E. coli
T2 sequence (P54149 21-233): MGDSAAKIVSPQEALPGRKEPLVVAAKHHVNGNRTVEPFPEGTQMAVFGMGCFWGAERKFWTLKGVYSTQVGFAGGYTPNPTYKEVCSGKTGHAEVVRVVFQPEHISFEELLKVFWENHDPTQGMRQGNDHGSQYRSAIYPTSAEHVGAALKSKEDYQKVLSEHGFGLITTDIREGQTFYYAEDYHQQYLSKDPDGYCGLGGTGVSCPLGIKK
Protocol: (§1) The compounds of the present invention may be assayed for activity both in vitro and in vivo. For example, in order to assay whether a compound of this invention will serve as a regenerable Msr substrate, the compound is titrated in several increments into a solution of the enzyme msrA (pH 7.5, 37 °C, reducing buffer) contained in a microcalorimeter. The heat (ΔH) from the reaction is measured at each step. These power output levels are converted into rates of reaction according to Todd & Gomez, Anal. Biochem., 296, pp. 1-9 (2001), and the resulting rates are plotted versus substrate concentration. From this plot, the kcat and KM are determined according to standard Michaelis-Menton enzyme kinetics.
An assay using isothermal titration calorimetry was developed. […] The quicker such compounds are converted back to their reduced form by MSR, the more equivalents of ROS they will eliminate before being cleared from the body. The assay was used to determine the enzymatic parameters (kcat and KM) of the compounds of this invention interacting with msrA under standard conditions. Chemical modifications that increase kcat, a measure of how quickly a compound was turned over by the enzyme, and/or decrease its KM, a measure of how readily a compound bound to the enzyme, represent improvements in that compound's ability to be efficiently processed by msrA.
In order to run the assay bovine msrA was overexpressed in E. coli and purified according to the method described in Lowther et al., Proc. Natl. Acad. Sci. USA, 97, pp. 6463-6468 (2000), the disclosure of which is herein incorporated by reference. A 300 nM solution of the enzyme was prepared in 50 mM Tris, 50 mM KCl, 4 mM tris(carboxyethyl)phosphine (TCEP), pH 7.50. A 25 mM solution of the compound to be tested was prepared in the identical buffer. A 1.8 ml aliquot of the msrA enzyme solution was loaded into the cell of a VP-ITC instrument from Microcal Corp. (Northampton, Mass.). The test compound solution was loaded into the syringe, and the entire system was allowed to come to thermal equilibrium at 37° C. while stirring at a rate of 300 rpm. Once equilibrium was established, a series of small injections ([…]) of the compound into the protein solution were made, and the increasing power output of the enzyme was measured after each injection, relative to the instrument baseline. These power output levels were converted into rates of reaction, according to Todd & Gomez, Anal. Biochem., 296, pp. 1-9 (2001), the disclosure of which is herein incorporated, and the resulting rates were plotted against substrate concentration. From this plot, the kcat and KM were determined with a computer fitting routine according to standard Michaelis-Menton enzyme kinetics.
To ensure that the compounds would be substrates for MSR, we determined the substrate specificities of MSR by choosing test compounds that contained a sulfoxide moiety and testing those compounds for MSR activity in the enzyme assay described below. Table 1 sets forth compounds that were tested for their ability to serve as MSR substrates using the isothermal titration calorimetry assay described above: […]

[4] = Solubility of test compounds in assay buffer; format: physicochemical; conditions: Tris assay buffer, pH 7.5, aqueous buffer; 50 mM Tris, 50 mM KCl, 5 mM TCEP, pH 7.50
[5] = tested on: reactive oxygen species; conditions: systemic injection; cited from earlier work
[6] = substrate: C[S+]([O-])CC[C@H](N)C(=O)O; experiment: purified protein, by the assay type; conditions: other: substrate for msrA, 300 nM enzyme, pH 7.50, 37° C, pH 7.5
[7] = substrate: CC1=C(CC(=O)O)c2cc(F)ccc2/C1=C\c1ccc([S+](C)[O-])cc1; experiment: purified protein, by the assay type; conditions: other: substrate for msrA, 300 nM enzyme, pH 7.50, 37° C, pH 7.5
[8] = substrate: CC1=C(CC(=O)NC(CC[S+](C)[O-])C(=O)O)c2cc(F)ccc2/C1=C\c1ccc([S+](C)[O-])cc1; experiment: purified protein, by the assay type; format: biochemical, bovine; conditions: other: substrate for msrA, 300 nM enzyme, pH 7.50, 37° C, pH 7.5
Protocol: as §1
An assay using isothermal titration calorimetry was developed. […] Chemical modifications that increase kcat, a measure of how quickly a compound was turned over by the enzyme, and/or decrease its KM, a measure of how readily a compound bound to the enzyme, represent improvements in that compound's ability to be efficiently processed by msrA. […]
To ensure that the compounds would be substrates for MSR, we determined the substrate specificities of MSR by choosing test compounds that contained a sulfoxide moiety and testing those compounds for MSR activity in the enzyme assay described below. […]

Which “partial recovery of dopamine production” value [1] does the source give for CS(=O)(=O)c1ccc(C2=C(c3ccccc3)C(=O)OC2)cc1 [Vioxx] here?
The value was roughly 20%.

Which “substrate for msrA (turned over by the enzyme)” value [2] does the source give for C[S+]([O-])CC[C@H](N)C(=O)O (some centres unmarked) [compound 100, methionine sulfoxide] here?
The value was “produces the large heat output”.

Which results are given for C[S+]([O-])c1ccccc1 (centres unmarked) [compound 102, methyphenylsulfoxide]?
Kcat [3]: 0.46 s⁻¹; Km [3]: 750 µM

Which Kcat [3] does the source give for C[S+](C)[O-] [compound 103, DMSO] here?
Its Kcat is 0.064 s⁻¹.

And the Km [3]?
The Km was 314 µM.

With C[S+]([O-])c1ccc(-c2cc(C(F)(F)F)nn2-c2ccc(S(N)(=O)=O)cc2)cc1 (centres unmarked) [compound 105] as the molecule, how does the solubility [4] read?
The solubility was less than 1000 µM.

Which solubility [4] does the source give for C[S+]([O-])c1ccc(CC(=O)O)cc1 (centres unmarked) [compound 106] here?
The solubility was less than 1000 µM.

For CSc1ccc(/C=C2/C(C)=C(CC(=O)NC(CC[S+](C)[O-])C(=O)O)c3cc(F)ccc32)cc1 (centres unmarked) [compound 107], which solubility [4] is on record?
The solubility was less than 1000 µM.

With C[S+]([O-])c1ccc(-c2cc(C(=O)O)nn2-c2ccc(S(N)(=O)=O)cc2)cc1 (centres unmarked) [compound 108] as the molecule, how does the solubility [4] read?
Its solubility is less than 1000 µM.

For CS(=O)(=O)CC[C@H](N)C(=O)O [compound 109, methionine sulfone], which Kcat [3] is on record?
Its Kcat is 0 s⁻¹.

And the “substrate for msrA (turned over by the enzyme)” value [2]?
Its value is “does not get turned over by msrA”.

What about the “substrate for msrA (turned over by the enzyme)” value ([2]; listed as methionine sulfone) of the same molecule?
Its value is “not a substrate for msrA”.

For CC(C)(C)[N+]([O-])=Cc1ccccc1 [phenyl-N-tert-butylnitrone (PBN), phenyl-N-tert-butylnitrone], which “relief of SNL-induced mechanical allodynia” value [5] is on record?
The value was “relieves SNL-induced mechanical allodynia in a dose-dependent manner”.

B1: bovine msrA (Bos taurus) (protein)
chain: MGDSAAKIVSPQEALPGRKEPLVVAAKHHVNGNRTVEPFPEGTQMAVFGMGCFWGAERKFWTLKGVYSTQVGFAGGYTPNPTYKEVCSGKTGHAEVVRVVFQPEHISFEELLKVFWENHDPTQGMRQGNDHGSQYRSAIYPTSAEHVGAALKSKEDYQKVLSEHGFGLITTDIREGQTFYYAEDYHQQYLSKDPDGYCGLGGTGVSCPLGIKK
notes: made in house; host or cells: E. coli
Which results are given for B1?
Km [6]: 504 µM; kcat [6]: 0.27 s⁻¹; Km [7]: 112 µM; kcat [7]: 0.56 s⁻¹; Km [8]: 7.6 µM; kcat [8]: 0.27 s⁻¹
